Read-outs that look alike come from different tables or passages of the source. Where only a bound is given, the exact number is not on record here.

The values that follow come from US9932339B2, “Helquats with heteroaromatic substituents, preparation thereof, and use thereof as G-quadruplex stabilizers” (USTAV ORGANICKE CHEMIE A BIOCHEMIE AV CR, V.V.I., priority 2014, dated 2018).

Test [1] deals with HUVEC. Put plainly: XTT cytotoxicity/proliferation assay, HUVEC. The class given is cell-based, human. The settings on record: Homo sapiens, HUVEC. How it is done:
To assess the antiproliferative effects of the tested substances in vitro, tumor cell line CCRF-CEM derived from acute lymphoblastic leukemia and normal (healthy) HUVEC endothelial cells from umbilical vein were used. Both of these cell lines were cultured under optimal conditions for their growth in the appropriate medium in plastic bottles or plastic Petri dishes of various sizes (TPP, BD Biosciences) at 37° C., 5% CO2 and 95% humidity. HUVEC cells were purchased from BD Biosciences. CCRF-CEM cell line was obtained from ATCC/LGC Standards (American Type Cell Collection). Normal human endothelial cells from the umbilical vein are adherent cells, which were grown in plastic Petri dishes coated with collagen I. The culture medium (E-STIMTM; BD Biosciences, cat. […] Then, 5 ml of complete culture media E-STIM™ was added and the cells were centrifuged (180×g, 7 minutes), resuspended and transferred in a desired amount in a new Petri dish with fresh medium. In the experiments cells between passages 3 and 8 (after thawing) were used. Population doubling time of HUVEC cells under the used culture conditions is 38 hours. For testing of the sensitivity of cell lines to studied helquats XTT cytotoxicity/proliferation assay for determination of cell viability was used. This method is based on the ability of metabolically active cells to reduce the yellow tetrazolium salt XTT to orange formazan. The rate of conversion is measured as the increase in absorbance at 492 nm and is proportional to the enzymatic activity of mitochondrial dehydrogenases and thus the number of metabolically active (viable) cells. […] Thus it reflects the effectiveness of the test substance towards the tested cell line. Cells in exponential growth phase were plated into 96-well microtiter plate at a concentration of 3000 cells per well. Each well contained 90 μl of cell suspension. The following day, 10 μl of 10× concentrated test substances was added. […] In addition to the part of the plate containing the mentioned dilutions of test compounds there were always two control columns present, first column with medium alone (i.e. blank) and the second column with the cells in medium without test compounds (control). Into the blank and control wells the same volume of solvent (water) as the volume of the substances was added. After 72 hours of treatment with substances the measurement of viability was performed according to the manufacturer instructions. Briefly, into each well of a 96-well microtiter plate 50 μl of the prepared working solution of XTT (detection reagent) was added and then the microtiter plate was returned to the CO2 incubator. After 2 hours, the absorbance of each well at 492 nm (reference wavelength 690 nm) was measured using a multifunctional microplate reader (Tecan Genios, Austria).

Test [2] concerns CCRF-CEM. Put plainly: XTT cytotoxicity/proliferation assay, CCRF-CEM. The class given is cell-based. The settings on record: Homo sapiens, CCRF-CEM. The procedure:
To assess the antiproliferative effects of the tested substances in vitro, tumor cell line CCRF-CEM derived from acute lymphoblastic leukemia and normal (healthy) HUVEC endothelial cells from umbilical vein were used. Both of these cell lines were cultured under optimal conditions for their growth in the appropriate medium in plastic bottles or plastic Petri dishes of various sizes (TPP, BD Biosciences) at 37° C., 5% CO2 and 95% humidity. HUVEC cells were purchased from BD Biosciences. CCRF-CEM cell line was obtained from ATCC/LGC Standards (American Type Cell Collection).
Suspension cell line CCRF-CEM is a continuous in vitro culture of acute lymphoblastic leukemia. Cell line CCRF-CEM was grown in RPMI 1640 medium (Sigma-Aldrich, cat. No. R8758) supplemented with 2 mmol·l^−1 glutamine (Invitrogen, cat. No. 35050-038), 10% fetal bovine serum (FBS; Sigma-Aldrich, cat. No. F9665), 100 IU/ml penicillin, 100 μg/ml streptomycin (Sigma-Aldrich, cat. No. P0781). Passaging was carried out 2-3 times a week. Population doubling time of CCRF-CEM cells under the used culture conditions is 20 hours.
For testing of the sensitivity of cell lines to studied helquats XTT cytotoxicity/proliferation assay for determination of cell viability was used. This method is based on the ability of metabolically active cells to reduce the yellow tetrazolium salt XTT to orange formazan. The rate of conversion is measured as the increase in absorbance at 492 nm and is proportional to the enzymatic activity of mitochondrial dehydrogenases and thus the number of metabolically active (viable) cells. The output is the IC50 value corresponding to the concentration of the test substance that causes a decrease in the number of viable cells by half (i.e. 50% slowdown of cell division) relative to the control, untreated population. Thus it reflects the effectiveness of the test substance towards the tested cell line.
Cells in exponential growth phase were plated into 96-well microtiter plate at a concentration of 3000 cells per well. Each well contained 90 μl of cell suspension. The following day, 10 μl of 10× concentrated test substances was added. Effect of helquats has been studied in the concentration range 1-100 μmol·l^−1 (or 1, 2.5, 5, 7.5, 10; 15; 25; 50 and 100 μmol·l^−1). In addition to the part of the plate containing the mentioned dilutions of test compounds there were always two control columns present, first column with medium alone (i.e. blank) and the second column with the cells in medium without test compounds (control). Into the blank and control wells the same volume of solvent (water) as the volume of the substances was added. After 72 hours of treatment with substances the measurement of viability was performed according to the manufacturer instructions. Briefly, into each well of a 96-well microtiter plate 50 μl of the prepared working solution of XTT (detection reagent) was added and then the microtiter plate was returned to the CO2 incubator. After 2 hours, the absorbance of each well at 492 nm (reference wavelength 690 nm) was measured using a multifunctional microplate reader (Tecan Genios, Austria).
The results of determination of the viability of cancer and normal cells after treatment with different concentrations of test substances are summarized in Table 9. […] Each concentration of a helquat was tested in triplicates within one IC50 value determination. Each of these IC50 value determinations was repeated in at least three independent experiments. Values above 100 μmol·l^−1 were obtained by extrapolation of data measured in the concentration range 0-100 μmol·l^−1 of helquats.

In test [3] the test system is c-myc protein. Put plainly: Immunodetection of protein c-myc in HGC-27 cell lysates (Western blot). The class given is cell-based, human. Conditions: 50 μmol · l^−1, 24 hour incubation, normalized to β-actin. The procedure: Determination of changes in c-myc protein expression (transcription factor) in cell lysates prepared from tumor cell line HGC-27 after treatment with test helquats (Tab. 7) was carried out by immunodetection after separation of proteins according to their size by gel electrophoresis (SDS-PAGE) and blotting.
To determine the influence helquats on expression of c-myc protein, the cells were cultured under standard conditions and in the exponential growth phase were seeded into flasks at a density of 25,000 cells/cm^2. The next day selected helquats were added at a concentration of 50 μmol·l^−1. After 24 hour incubation, the cell pellets were obtained and, after addition of RIPA buffer with protease inhibitors (PrIC) and phosphatases (PhIC) (for composition see Tab. 8) cell lysates were prepared. 150 μl of RIPA buffer was used for 10^7 cells. Protein concentrations in the lysates were measured by BCA method. Separation of proteins in the lysates was carried out on a 12% denaturing polyacrylamide gel. The separated proteins were transferred to PVDF membrane by Western blotting.
Incubation with primary mouse monoclonal antibody against the protein c-myc (dilution 1:1000 in “SignalBoost” reagent) was carried out overnight at 4° C., and then with the primary mouse anti-β-actin (1:5000 dilution in 5% milk in TBS-T buffer) at room temperature for 2 hours. Subsequently, the secondary horse monoclonal antibody conjugated to horseradish peroxidase (diluted 1:2000 in 5% milk in TBS-T buffer) binding to mouse IgG antibody was applied. C-myc proteins and β-actin bound to the membrane were visualized using detection kit (SuperSignal® West Femto Maximum Sensitivity Substrate, Cat. No. 34095, Thermo Fisher Scientific, Inc., USA) in the chemiluminescence detection system ImageQuant LAS 4000 Mini (Cat. No. 28-9558-13, GE Healthcare Life Sciences, USA). The amount of protein was quantified by densitometry in Quantity One software. The amount of c-myc in the samples was normalized to β-actin, and subsequently related to a control sample.

Where [4] appears, read: 72 hours of treatment, values above 100 μmol·l^−1 obtained by extrapolation, read-out: IC50 HUVEC.
[5] abbreviates: 72 hours of treatment, read-out: IC50 CCRF CEM.

On to `C(=C\c1ccc(-c2cccs2)s1)/c1cc(/C=C/c2ccc(-c3cccs3)s2)[n+]2c(c1)-c1c(ccc3c1-c1cccc[n+]1CC3)CC2.O=S(=O)([O-])C(F)(F)F.O=S(=O)([O-])C(F)(F)F` [HTA-C9-16, 2,4-bis((E)-2-([2,2′-bithiophen]-5-yl)vinyl)-6,7,10,11-tetrahydrodipyrido[2,1-a:1′,2′-k][2,9]phenanthroline-5,12-diium trifluoromethanesulfonate], for which the values for the IC50 in test [1] (setting [4]) and in test [2] (setting [5]) were 26 to 50 µM and 11 to 25 µM, respectively. In test [3], the “c-myc protein expression relative to control (control = 100%)” value amounted to 32%.

Consider `C(=C\c1cc2ccccc2o1)/c1cc(/C=C/c2cc3ccccc3o2)[n+]2c(c1)-c1c(ccc3c1-c1cccc[n+]1CC3)CC2.O=S(=O)([O-])C(F)(F)F.O=S(=O)([O-])C(F)(F)F` [HTA-C9-17, 2,4-bis((E)-2-(benzofuran-2-yl)vinyl)-6,7,10,11-tetrahydrodipyrido[2,1-a:1′,2′-k][2,9]phenanthroline-5,12-diium trifluoromethanesulfonate], for which the IC50 in test [1] (setting [4]) was not below 51 µM; in test [2] (setting [5]), 26 to 50 µM. In test [3], the “c-myc protein expression relative to control (control = 100%)” value is given as 44%.

On to `C(=C\c1cc2ccccc2[n+]2c1-c1c(ccc3c1-c1cccc[n+]1CCC3)CCC2)/c1ccc(-c2cccs2)s1.O=S(=O)([O-])C(F)(F)F.O=S(=O)([O-])C(F)(F)F` [MSC-C9-16, 19-((E)-2-([2,2′-bithiophen]-5-yl)vinyl)-6,7,8,11,12,13-hexahydropyrido[1′″,2′″:1″,2″]azepino[4″,3″:5′,6′]benzo[1′,2′:3,4]azepino[1,2-a]quinoline-5,14-diium trifluoromethanesulfonate], for which the IC50 in test [1] (setting [4]) was not below 100 µM; in test [1] (72 hours, summary of table 9, read-out: concentrations non-toxic towards HUVEC cells), more than 100 µM; in test [2] (setting [5]), not above 10 µM; in test [2] (72 hours, summary of table 9, read-out: concentrations toxic towards CCRF-CEM cells) it was less than 25 µM. Besides, in test [3], the “c-myc protein expression relative to control (control = 100%)” value is 36%.

For the molecule `Brc1ccc2c(/C=C/c3cc4ccccc4[n+]4c3-c3c(ccc5c3-c3cccc[n+]3CCC5)CCC4)c[nH]c2c1.O=S(=O)([O-])C(F)(F)F.O=S(=O)([O-])C(F)(F)F` [MSC-C9-18, 19-((E)-2-(6-bromo-1H-indol-3-yl)vinyl)-6,7,8,11,12,13-hexahydropyrido[1′″,2′″:1″,2″]azepino[4″,3″:5′,6′]benzo[1′,2′:3,4]azepino[1,2-a]quinoline-5,14-diium trifluoromethanesulfonate], the IC50 in test [1] (setting [4]) is not below 51 µM; in test [2] (setting [5]) it was 11 to 25 µM. Also, the “c-myc protein expression relative to control (control = 100%)” value in test [3] is listed as 31%.

Consider `Cc1c(/C=C/c2cc3ccccc3[n+]3c2-c2c(ccc4c2-c2cccc[n+]2CCC4)CCC3)sc2ccccc12.O=S(=O)([O-])C(F)(F)F.O=S(=O)([O-])C(F)(F)F` [MSC-C10-36, 19-((E)-2-(3-methylbenzo[b]thiophen-2-yl)vinyl)-6,7,8,11,12,13-hexahydropyrido[1′″,2′″:1″,2″]azepino[4″,3″:5′,6′]benzo[1′,2′:3,4]azepino[1,2-a]quinoline-5,14-diium trifluoromethanesulfonate], for which the IC50 in test [1] (setting [4]) is not below 51 µM; in test [2] (setting [5]) it was not above 10 µM. The “c-myc protein expression relative to control (control = 100%)” value in test [3] was 85%.
